Data published in patent US10626349B2, “Cleavable surfactants” (PROMEGA CORPORATION, priority 2007, dated 2020).

Tests used:
[1] = molecular target: T1, Bacteriorhodopsin digested with chymotrypsin (Halobacterium salinarum, UniProt P02945); assay: Bacteriorhodopsin/Chymotrypsin digest, HPLC peak area versus RapiGest control; format: biochemical; details: 0.025% surfactant, BR heated (boiled) with surfactant 5 minutes at 95° C., chymotrypsin 10:1, 1 hour at 37° C.; ratio to RapiGest control
T1 sequence (P02945 14-261 limits assumed): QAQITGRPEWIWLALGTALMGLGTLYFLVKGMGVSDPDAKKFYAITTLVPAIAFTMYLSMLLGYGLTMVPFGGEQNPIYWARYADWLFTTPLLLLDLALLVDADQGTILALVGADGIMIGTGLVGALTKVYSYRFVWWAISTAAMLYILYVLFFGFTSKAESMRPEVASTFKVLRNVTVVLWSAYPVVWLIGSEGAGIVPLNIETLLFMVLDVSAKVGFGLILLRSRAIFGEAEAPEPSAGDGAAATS
Method: Bacteriorhodopsin (25 μs) was heated with 0.025% Rapigest™ surfactant or the indicated compound of the invention for 5 minutes at 95° C., then digested with chymotrypsin (Sigma) at a 10:1 ratio in 125 μL 50 mM Ammonium bicarbonate for 1 hour at 37° C. After one hour TFA was added to 0.5-2% and the mixtures were incubated at 37° C. or 65° C. for 20 or 30 minutes. Degraded surfactant was removed by centrifugation at 14,000×g for 5 minutes. An aliquot of 50-100 μL of digested protein was analyzed by HPLC as described above.
Compound 3211, 3212, 3224 and Rapigest™ surfactant control for FIG. 13C reactions: Bacteriorhodopsin (25 μs) was solubilized with 0.025% compound of interest for 1-2 minutes at room temperature, then digested with chymotrypsin (Sigma) at a 10:1 ratio in 125 μL 50 mM Ammonium bicarbonate for 1 hour at 37° C. After one hour TFA was added to 0.5-2% and the mixtures were incubated at 37° C. or 65° C. for 20 or 30 minutes. Degraded surfactant was removed by centrifugation at 14,000×g for 5 minutes. An aliquot of 50-100 μL of digested protein was analyzed by HPLC as described above.
(§1) For each compound numbered below in Example 12, the rate of enhanced digestion was determined from the ratio of the surfactant peak area (surfactant # Pk. Area) to the Rapigest™ surfactant peak area (RG Pk area). Peak area was determined as the sum of all peaks integrated from 8-22 minutes.

[2] = Acid and thermal degradation of the surfactant; details: for degradation after overnight incubation (in words): concentration not given; for degradation by acid (0.5% TFA) or by heat (boiling), in words: 3236: 0.1% solution in 0.5% TFA 30 minutes at 37° C. or 5 minutes of boiling without TFA; for acid-lability (in words): 0.5% TFA at 37° C. where stated (3237: 30 minutes), 3271 by TLC analysis; for thermolability (in words): 3266: 5 minutes at 95° C.
[3] = Solubility of the surfactant; details: for solubility in aqueous solutions (in words) / solubility in aqueous solutions (concentration dissolved to): aqueous solution; for solubility (concentration dissolved to): in 50 mM ammonium bicarbonate; for solubilized in DMSO to: 100% DMSO
[4] = molecular target: T2, Myoglobin from horse heart digested with trypsin (Equus caballus, UniProt P68082); assay: Myoglobin/Trypsin digest, HPLC peak area versus RapiGest control; format: biochemical; details: 0.01% surfactant, trypsin 50:1, 20 minutes at 37° C.; ratio to RapiGest control, >1 = more digestion
T2 construct: Myoglobin from horse heart; from tissue; host or cells: horse heart
T2 sequence (P68082 2-154 limits assumed): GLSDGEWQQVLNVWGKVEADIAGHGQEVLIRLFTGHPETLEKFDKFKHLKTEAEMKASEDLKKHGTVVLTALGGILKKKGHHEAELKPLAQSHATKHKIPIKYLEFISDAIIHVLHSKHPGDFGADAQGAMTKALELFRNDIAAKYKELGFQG
Method: Myoglobin from horse heart (typically 25 μs) was digested with trypsin (Promega) at a 50:1 ratio in a volume of 125 μL (typical) of 50 mM Ammonium bicarbonate for 20 minutes at 37° C. with 0.01% RapiGest™ surfactant or 0.01% of the indicated compound of the invention (upper and lower chromatograms, respectively). TFA was added to 0.5-2% and the mixtures were incubated at 37° C. or 65° C. for 20 or 30 minutes. Degraded surfactant was removed by centrifugation at 14,000×g for 5 minutes. HPLC analysis was performed on a 25-50 μL reaction sample using an HP1050 LC system with an Agilent Sorbax SB-C18 column (3.0×100 mm, 3.5 micron) and a gradient of 0.1% TFA (97.5% initial) and Acetonitrile, 0.01% TFA (55% final condition followed by a 100% wash step) and a flow rate of 0.75 mL/min. Peptides were detected at 214 and 280 nm.
as §1

[5] = Hydrolytic stability in 50 mM ammonium bicarbonate (reverse-phase HPLC); format: physicochemical; design: key: >>: compound 100% stable over course of experiment
Method: Hydrolytic stability was measured by monitoring the change in retention time of the intact surfactant by reverse-phase HPLC. The ½-life is defined as the time required to reach 50% degradation.

[6] = surfactant conc. 0.025% in 50 mM ammonium bicarbonate
[7] = surfactant conc. 1% in 50 mM ammonium bicarbonate

Row | Structure (SMILES) | surfactant Pk area/RG Pk area, Myoglobin/Trypsin digest [4] | solubility in aqueous solutions (concentration dissolved to) [3] | surfactant Pk area/RG Pk area, Bacteriorhodopsin/Chymotrypsin digest [1] | other results
1 | CCCCCCOc1ccc(COC(=O)NCCCS(=O)(=O)O)cc1 [Compound 3186] |  |  | 0.45 | time to degradation of 0.01% solution ([2]; 37° C. where stated): ≤ 30 min; solubility in aqueous solutions (in words) [3]: some solubility in aqueous solution
2 | CCCCCCCCCCCC(C)(C)OC(=O)SCCS(=O)(=O)O [Compound 3189] | 1.1 | 0.5% | 0.6 | degradation of 0.01% solution (in words) ([2]; 37° C. where stated): degraded only after overnight incubation
3 | CCCCCC(OC(=O)NCCCS(=O)(=O)O)c1ccccc1 (stereo not shown) [Compound 3190] |  | 0.5% | 0.34 | time to degradation of 0.01% solution ([2]; 37° C. where stated): 30 min; degradation of 0.1% solution (in words) [2]: overnight
4 | CCCCCCCCCCCC(C)(C)OC(=O)NCC(O)CS(=O)(=O)[O-].[Na+] (stereo not shown) [Compound 3192] | 1.3 | 0.5% | 1.1 | degradation of 0.01% solution (in words) ([2]; 37° C. where stated): degraded only after overnight incubation
5 | CCCCCCCCCCCC(C)(C)OC(=O)Oc1ccc(NCCCCS(=O)(=O)O)cc1 [Compound 3195] | 0.5 | not more than 0.2% |  | degradation after overnight incubation (in words) [2]: No degradation was observed even after overnight incubation
6 | CCCCCCCCCCCC(C)(C)OC(=O)Oc1ccc(N(CCCCS(=O)(=O)[O-])CCCCS(=O)(=O)O)cc1.[Na+] [Compound 3196] | 0.65 | 0.5% |  | time to degradation of 0.01% solution ([2]; 37° C. where stated): 30 min; degradation of 0.1% solution (in words) [2]: overnight
7 | CCCCCC/C=C/C(C)OC(=O)NCCCS(=O)(=O)O (stereo not shown) [Compound 3201] | 0.3 | 0.5% | 0.4 | 
8 | CCCCCC/C=C/C(C)OC(=O)NCC(O)CS(=O)(=O)[O-].[Na+] (stereo not shown) [Compound 3203] |  | 0.5% | 0.4 | degradation of 0.1% solution (in words) [2]: degraded after overnight incubation
9 | CCCCCCCC(C)(C)OC(=O)Oc1ccc(NCCCS(=O)(=O)[O-])cc1.[Na+] [Compound 3210] | 0.3 | 0.5% |  | degradation rate (grade in words) [2]: moderate
10 | CCCCCCCCCCCc1ccc(C(OCCc2ccc(N(CCCCS(=O)(=O)[O-])CCCCS(=O)(=O)[O-])cc2)(c2ccccc2)c2ccc(OCCCCCCCCCC)cc2)cc1.[Na+].[Na+] (stereo not shown) [Compound 3216] |  |  | 0.7 | solubilized in DMSO to [3]: 10%; solubility in aqueous solutions (in words) [3]: Insoluble in aqueous solutions
11 | CCCCCCCCCCOc1ccc(C(OCCN(CCCCS(=O)(=O)[O-])CCCCS(=O)(=O)[O-])(c2ccccc2)c2ccc(OCCCCCCCCCC)cc2)cc1.[Na+].[Na+] [Compound 3218] | 0.3 |  | 0.65 | solubilized in DMSO to [3]: 10%; solubility in aqueous solutions (in words) [3]: Insoluble in aqueous solutions
12 | CCCCCCCCCCOc1ccc(C(OCCc2ccc(N(CCCCS(=O)(=O)[O-])CCCCS(=O)(=O)[O-])cc2)(c2ccccc2)c2ccc(OC)cc2)cc1.[Na+].[Na+] (stereo not shown) [Compound 3219] |  | 1% |  | 
13 | CCCCCCCCCCCCOc1ccc(/C=N/CCCS(=O)(=O)O)cc1 [Compound 3221] | 0.13 | 0.5% | 0.5 | 
14 | CCCCCCCCCCCCC(OC(=O)NCCCS(=O)(=O)O)c1cc(OC)c(OC)c(OC)c1 (stereo not shown) [Compound 3267] | 0.9 |  |  | degradation by acid (0.5% TFA) or by heat (boiling), in words [2]: Did not degrade in 0.5% TFA or by boiling; solubility (concentration dissolved to) [3]: 2%

Further lines, with some results ahead:

Row | surfactant Pk area/RG Pk area, Myoglobin/Trypsin digest [4] | solubility in aqueous solutions (concentration dissolved to) [3] | Structure (SMILES) | surfactant Pk area/RG Pk area, Bacteriorhodopsin/Chymotrypsin digest [1] | other results
15 | 0.37 | 0.5% | CCCCCCC(OC(=O)NCCCS(=O)(=O)O)c1ccc(C(F)(F)F)cc1 (stereo not shown) [Compound 3199] |  | degradation after overnight incubation (in words) [2]: No degradation was observed even after overnight incubation
16 |  | 0.5% | CCCCCC(OC(=O)SCCS(=O)(=O)O)c1ccccc1 (stereo not shown) [Compound 3207] |  | time to degradation of 0.01% solution ([2]; 37° C. where stated): ≤ 60 min
17 | 2.1 | 0.5% | CCCCCC/C=C/C(C)OC(=O)Oc1ccc(NCCCS(=O)(=O)[O-])cc1.[Na+] (stereo not shown) [Compound 3209] |  | degradation after overnight incubation (in words) [2]: No degradation was observed even after overnight incubation
18 | 1.4 |  | CCCCCCCCCCC(OC(=O)NCCCS(=O)(=O)[O-])c1ccc(OC)cc1.[Na+] (stereo not shown) [Compound 3212] |  | ½-life ([5]; surfactant conc. 0.0025% in 50 mM ammonium bicarbonate): 3.7 h; ½-life [5, 6]: 21 h; ½-life ([5]; surfactant conc. 0.10% in 50 mM ammonium bicarbonate): 38 h; ½-life [5, 7]: >>; time to degradation in 0.5% TFA ([2]; 0.5% TFA, 37° C. where stated, 0.1% solution for 3220 and 3266): 15 min; time to degradation by boiling without TFA ([2]; boiling without TFA): 5 min; solubility (concentration dissolved to) [3]: 1%
19 | 1 | 1% | CCCCCCCCCCC(OC(=O)NCCCS(=O)(=O)O)c1cccs1 (stereo not shown) [Compound 3269] |  | ½-life ([5]; surfactant conc. 0.03% in 50 mM ammonium bicarbonate): 7 h; ½-life [5, 7]: 135 h
20 | 0.8 | 0.5% | CCCCCCCCCCC(OC(=O)NCCCS(=O)(=O)O)c1ccc(Br)o1 (stereo not shown) [Compound 3270] |  | ½-life [5, 6]: 6.5 h; ½-life [5, 7]: 40 h
21 | 0.9 | 1% | CCCCCCCCCCC(OC(=O)NCCCS(=O)(=O)O)c1ccoc1 (stereo not shown) [Compound 3271] |  | ½-life [5, 6]: >350 h; ½-life [5, 7]: >>; acid-lability (in words) [2]: Just partially acid-labile; thermolability (in words) [2]: thermostable
22 | 0.75 | 1% | CCCCCCCCCCC(OC(=O)NCCCS(=O)(=O)O)c1ccsc1 (stereo not shown) [Compound 3273] |  | acid-lability (in words) [2]: Just partially acid-labile; thermolability (in words) [2]: thermostable
23 | 1 | 1% | CCCCCCCCCCC(OC(=O)NCCCS(=O)(=O)O)c1ccc(Cl)o1 (stereo not shown) [Compound 3274] |  | ½-life [5, 6]: ~6 h; degradation by acid (0.5% TFA) or by heat (boiling), in words [2]: Acid- and thermolabile
24 | 0.2 | 1% | CCCCCCCCCCC(OC(=O)NCCCS(=O)(=O)O)c1ccc(C(F)(F)F)o1 (stereo not shown) [Compound 3275] |  | ½-life [5, 6]: >300 h; ½-life [5, 7]: >>; degradation by acid (0.5% TFA) or by heat (boiling), in words [2]: Fully acid- and thermostable at the tested conditions
